Assay results taken from article PMC3524758, “Development and evaluation of a novel radioiodinated vesamicol analog as a sigma receptor imaging agent” (EJNMMI Research, 2012).
Several values for one entry are separate records, joined by “and”; a condition that tells them apart may be missing. Equal values may be shown once. Marks after values point to notes of the source that are not given here.

Legend:
[1] = Metabolite analysis in blood, tumor and other tissues (TLC); type: in vivo, mice; conditions: i.v., mean (SD) three samples
Method: For metabolite analysis, the above-mentioned DU-145 tumor-bearing mice were intravenously administered with 100 μL of (+)-[^125I]IV-OH (3.7 MBq). At 10-min and 1-h post-injections, the mice were killed. Blood was collected and tissues of interest were removed. The blood was centrifuged at 1,000×g for 10 min at 4°C. After the plasma was collected, an equivalent volume of acetonitrile/water mixture (1:1) was added to the plasma. The mixture was centrifuged at 1,000×g for 10 min at 4°C. The tissues of interest (0.2 to 0.5 g) were homogenized in 1 mL of acetonitrile-water mixture (1:1). Each homogenized sample was centrifuged at 1,000×g for 10 min at 4°C. The supernatants were analyzed by TLC with a chloroform/methanol mixture (5:1) as a developing solvent. TLC plates were exposed to phosphor imaging plates (BAS IP SR 2025 E, Fujifilm, Tokyo, Japan) for 48 h. The exposed imaging plates were evaluated using an imaging scanner (BAS 5000 Bio-Imaging Analyzer, Fujifilm).

[2] = test system: DU-145 prostate cancer cell lines; assay: Cellular uptake and washout experiments in vitro; type: cell-based; conditions: DU-145 cells
Method: Radiotracer uptake studies were performed in monolayer cultures of DU-145 prostate cancer cell lines, which were obtained from ATCC (Manassas, VA, USA). Cells were grown in cell culture dishes in RPMI 1640 medium with phenol red, 10% heat-inactivated fetal bovine serum (FBS), 100-μg/mL glutamine, 100-units/mL penicillin, and 100-μg/mL streptomycin at 37°C in a humidified atmosphere of 95% air and 5% carbon dioxide. Cells were plated on 6-well tissue culture plates (4 × 10^5 cells/well) for 24 h before the study and incubated at 37°C in the culture medium without FBS containing (+)-^125I]IV-OH or (+)-^125I]pIV (3.7 kBq/well), which was prepared by a method of a previous study for different time intervals (15, 30, 60, and 120 min). For the washout experiment, tumor cells exposed to a medium containing (+)-^125I]IV-OH or (+)-^125I]pIV for 60 min were washed with phosphate buffered saline (PBS) and incubated in fresh (nonradioactive) medium without FBS at 37°C for 15, 30, and 60 min. […] After incubation, cells were washed twice with ice-cold PBS and resolved by adding 0.5 mL of 1-M NaOH. The solutions were then collected and the radioactivity was determined with an auto well gamma counter (ARC-380; Aloka) and corrected for background radiation. The radioactivity of each sample was normalized for the protein level, which was determined using a Protein Assay Bicinchoninate Kit (Nacalai Tesque).

[3] = Partition coefficient (1-octanol / 0.02-M phosphate buffer); type: physicochemical
Method: The partition coefficient of (+)-^125I]IV-OH was measured as described previously.

[4] = Biodistribution in DU-145 tumor-bearing mice; type: in vivo; conditions: i.v., mean (SD)
Method: (+)-^131I]pIV was prepared using a method described previously. To produce tumors, approximately 5 × 10^6 of the prepared DU-145 cells was injected subcutaneously into the right dorsum of 4-week-old male BALB/c nude mice (15 to 19 g, Japan SLC, Inc.). Biodistribution experiments were performed at approximately 14- to 21-day post-inoculation, i.e., when tumors reached a palpable size. Groups of four mice were intravenously administered with 100 μL of a mixed solution of (+)-^125I]IV-OH (37 kBq) and (+)-^131I]pIV (37 kBq). At 10-min, 1-, 3-, and 24-h post-injections, the mice were killed. Tissues of interest were removed and weighed, and radioactivity counts were determined with an auto well gamma counter and corrected for background radiation. A window from 16 to 71 keV was used for measuring ^125I and one from 300 to 433 keV for ^131I. The crossover of ^125I activity into the ^131I channel was negligible. Correlation factors to eliminate any crossover of ^131I activity into ^125I were determined by measuring the ^131I standard in both windows.

Compound: Oc1ccc(C2CCN(C3CCCCC3O)CC2)cc1[125I] (single isomer, unassigned; (+)) [(+)-[^125I]IV-OH]
- percent of intact (+)-[^125I]IV-OH, Blood ([1]; 10 min post-injection): 17.0 (9.0) percent
- percent of intact (+)-[^125I]IV-OH, Blood ([1]; 1 h post-injection): 0.9% and 0.9 (1.0) percent
- percent of intact (+)-[^125I]IV-OH, Brain ([1]; 10 min post-injection): 96.4 (1.1) percent
- percent of intact (+)-[^125I]IV-OH, Brain ([1]; 1 h post-injection): 73.7 (8.4) percent
- percent of intact (+)-[^125I]IV-OH, Kidney ([1]; 10 min post-injection): 19.8 (3.7) percent
- percent of intact (+)-[^125I]IV-OH, Kidney ([1]; 1 h post-injection): 2.6% and 2.6 (1.8) percent
- percent of intact (+)-[^125I]IV-OH, Liver ([1]; 10 min post-injection): 5.4 (7.4) percent
- percent of intact (+)-[^125I]IV-OH, Liver ([1]; 1 h post-injection): 0.1% and 0.1 (0.2) percent
- percent of intact (+)-[^125I]IV-OH, Tumor ([1]; 10 min post-injection): 93.1 (4.3) percent
- percent of intact (+)-[^125I]IV-OH, Tumor ([1]; 1 h post-injection): 70.2 (5.6) percent
- time at which uptake was saturated [2]: 30 min
- accumulation in the presence of haloperidol ([2]; haloperidol 10 μM in culture medium): remarkably lessened
- intracellular radioactivity released into the supernatant ([2]; within 60 min after medium replacement, specific uptake): Approximately 71%
- log P [3]: 1.13 ± 0.01
- Biodistribution of radioactivity, Blood ([4]; 10 min post-injection): 1.28 (0.13)* percent injected dose per gram tissue
- Biodistribution of radioactivity, Blood ([4]; 1 h post-injection): 1.04 (0.10)* percent injected dose per gram tissue
- Biodistribution of radioactivity, Blood ([4]; 3 h post-injection): 0.43 (0.09)** percent injected dose per gram tissue
- Biodistribution of radioactivity, Blood ([4]; 24 h post-injection): 0.00 (0.00)* percent injected dose per gram tissue
- Biodistribution of radioactivity, Brain ([4]; 10 min post-injection): 5.14 (0.50)* percent injected dose per gram tissue
- Biodistribution of radioactivity, Brain ([4]; 1 h post-injection): 1.04 (0.08)* percent injected dose per gram tissue
- Biodistribution of radioactivity, Brain ([4]; 3 h post-injection): 0.22 (0.02)* percent injected dose per gram tissue
- Biodistribution of radioactivity, Brain ([4]; 24 h post-injection): 0.00 (0.00)* percent injected dose per gram tissue
- Biodistribution of radioactivity, Heart ([4]; 10 min post-injection): 3.57 (0.40)* percent injected dose per gram tissue
- Biodistribution of radioactivity, Heart ([4]; 1 h post-injection): 0.78 (0.05)* percent injected dose per gram tissue
- Biodistribution of radioactivity, Heart ([4]; 3 h post-injection): 0.27(0.00)** percent injected dose per gram tissue
- Biodistribution of radioactivity, Heart ([4]; 24 h post-injection): 0.01 (0.01)* percent injected dose per gram tissue
- Biodistribution of radioactivity, Intestine ([4]; 10 min post-injection): 5.26 (0.61)* percent injected dose per gram tissue
- Biodistribution of radioactivity, Intestine ([4]; 1 h post-injection): 7.96 (0.72)* percent injected dose per gram tissue
- Biodistribution of radioactivity, Intestine ([4]; 3 h post-injection): 4.84 (0.95) percent injected dose per gram tissue
- Biodistribution of radioactivity, Intestine ([4]; 24 h post-injection): 0.14 (0.02)* percent injected dose per gram tissue
- Biodistribution of radioactivity, Kidney ([4]; 10 min post-injection): 35.01 (2.83)* percent injected dose per gram tissue
- Biodistribution of radioactivity, Kidney ([4]; 1 h post-injection): 15.30 (1.80) percent injected dose per gram tissue
- Biodistribution of radioactivity, Kidney ([4]; 3 h post-injection): 4.89 (0.87)** percent injected dose per gram tissue
- Biodistribution of radioactivity, Kidney ([4]; 24 h post-injection): 0.04 (0.01)* percent injected dose per gram tissue
- Biodistribution of radioactivity, Liver ([4]; 10 min post-injection): 7.82 (0.32)* percent injected dose per gram tissue
- Biodistribution of radioactivity, Liver ([4]; 1 h post-injection): 9.80 (0.94)** percent injected dose per gram tissue
- Biodistribution of radioactivity, Liver ([4]; 3 h post-injection): 2.81 (0.33)* percent injected dose per gram tissue
- Biodistribution of radioactivity, Liver ([4]; 24 h post-injection): 0.06 (0.03)* percent injected dose per gram tissue
- Biodistribution of radioactivity, Lung ([4]; 10 min post-injection): 9.74 (1.59)* percent injected dose per gram tissue
- Biodistribution of radioactivity, Lung ([4]; 1 h post-injection): 1.85 (0.18)* percent injected dose per gram tissue
- Biodistribution of radioactivity, Lung ([4]; 3 h post-injection): 0.63 (0.11)* percent injected dose per gram tissue
- Biodistribution of radioactivity, Lung ([4]; 24 h post-injection): 0.01 (0.02)* percent injected dose per gram tissue
- Biodistribution of radioactivity, Muscle ([4]; 10 min post-injection): 2.20 (0.58) percent injected dose per gram tissue
- Biodistribution of radioactivity, Muscle ([4]; 1 h post-injection): 0.45 (0.03)* percent injected dose per gram tissue
- Biodistribution of radioactivity, Muscle ([4]; 3 h post-injection): 0.26 (0.10) percent injected dose per gram tissue
- Biodistribution of radioactivity, Muscle ([4]; 24 h post-injection): 0.01 (0.01)* percent injected dose per gram tissue
- Biodistribution of radioactivity, Pancreas ([4]; 10 min post-injection): 25.04 (2.40)* percent injected dose per gram tissue
- Biodistribution of radioactivity, Pancreas ([4]; 1 h post-injection): 12.80 (0.97)* percent injected dose per gram tissue
- Biodistribution of radioactivity, Pancreas ([4]; 3 h post-injection): 2.94 (0.49)* percent injected dose per gram tissue
- Biodistribution of radioactivity, Pancreas ([4]; 24 h post-injection): 0.01 (0.01)* percent injected dose per gram tissue
- Biodistribution of radioactivity, Spleen ([4]; 10 min post-injection): 8.11 (1.24) percent injected dose per gram tissue
- Biodistribution of radioactivity, Spleen ([4]; 1 h post-injection): 1.84 (0.11)* percent injected dose per gram tissue
- Biodistribution of radioactivity, Spleen ([4]; 3 h post-injection): 0.60 (0.12)* percent injected dose per gram tissue
- Biodistribution of radioactivity, Spleen ([4]; 24 h post-injection): 0.01 (0.02)* percent injected dose per gram tissue
- Biodistribution of radioactivity, Stomach ([4]; 10 min post-injection): 1.18 (0.36) percent injected dose
- Biodistribution of radioactivity, Stomach ([4]; 1 h post-injection): 0.62 (0.18) percent injected dose
- Biodistribution of radioactivity, Stomach ([4]; 3 h post-injection): 0.55 (0.25) percent injected dose
- Biodistribution of radioactivity, Stomach ([4]; 24 h post-injection): 0.03 (0.02)* percent injected dose
- Biodistribution of radioactivity, Tumor ([4]; 10 min post-injection): 9.55 (0.64)** percent injected dose per gram tissue
- Biodistribution of radioactivity, Tumor ([4]; 1 h post-injection): 5.45 (0.70) percent injected dose per gram tissue
- Biodistribution of radioactivity, Tumor ([4]; 3 h post-injection): 2.57 (0.41) percent injected dose per gram tissue
- Biodistribution of radioactivity, Tumor ([4]; 24 h post-injection): 0.06 (0.04)** percent injected dose per gram tissue
